Measurements as given in patent publication US12146168B2, “Human CGAS-DNA complex and encoded protein” (priority 2018, dated 2024).
Changes are numbered by the printed parent chain. Names may count otherwise. “Also recorded” adds a separate entry of the source.

B1: hcGAS K187N/L195R (protein, UniProt Q8N884 1-522, looked up, variant K187N L195R)
Cyclic GMP-AMP synthase: MQPWHGKAMQRASEAGATAPKASARNARGAPMDPTESPAAPEAALPKAGKFGPARKSGSRQKKSAPDTQERPPVRATGARAKKAPQRAQDTQPSDATSAPGAEGLEPPAAREPALSRAGSCRQRGARCSTKPRPPPGPWDVPSPGLPVSAPILVRRDAAPGASKLRAVLEKLKLSRDDISTAAGMVNGVVDHLLRRLKCDSAFRGVGLLNTGSYYEHVKISAPNEFDVMFKLEVPRIQLEEYSNTRAYYFVKFKRNPKENPLSQFLEGEILSASKMLSKFRKIIKEEINDIKDTDVIMKRKRGGSPAVTLLISEKISVDITLALESKSSWPASTQEGLRIQNWLSAKVRKQLRLKPFYLVPKHAKEGNGFQEETWRLSFSHIEKEILNNHGKSKTCCENKEEKCCRKDCLKLMKYLLEQLKERFKDKKHLDKFSSYHVKTAFFHVCTQNPQDSQWDRKDLGLCFDNCVTYFLQCLRTEKLENYFIPEFNLFSSNLIDKRSKEFLTKQIEYERNNEFPVFDEF
B2: L195R (protein, listed as Homo sapiens)
chain: B1 Cyclic GMP-AMP synthase with N187K
B3: K187N (protein, listed as Homo sapiens)
chain: B1 Cyclic GMP-AMP synthase with R195L

Columns and labels:
V. cholerae = V. cholerae chemotaxis assay (overexpressed cGAMP synthases); type: cell-based, Vibrio cholerae; conditions: overexpression as MBP N-terminal fusion, arabinose induced
Experimental: V. cholerae strains were cultured at 37° C. on LB media (1% tryptone, 0.5% yeast extract, 0.5% NaCl w/v), stored at −80° C. in LB supplemented with 30% glycerol, and were all derivatives of streptomycin resistant C6706 dncV: Tn (to remove endogenous 3′3′ cGAMP synthesis) (Davies et al. (2012) Cell 149:358-370). Where appropriate, antibiotics and supplemented nutrients were used at the following concentrations: streptomycin (100 μg ml^−1), carbenicillin (100 μg ml^−1), and diaminopimelic acid (300 μg ml^−1). hcGAS (D157-F522) and mcGAS (P147-L507) were codon optimized for bacterial expression (Genscript and IDT respectively), and all cGAS enzymes and control genes were overexpressed from a custom plasmid pBAD24T, a conjugation-proficient version of pBAD24 that harbors an arabinose inducible promoter and a strong ribosomal binding site (Guzman et al. (1995) J Bacteriol 177:4121-4130) that was further modified to include a new multiple cloning site. All genes overexpressed in V. cholera were encoded as MBP N-terminal fusions except the MBP alone negative control vector (Table 5).
[…]. V. cholerae chemotaxis assays were performed as previously described (Davies et al. (2012) Cell 149:358-370). Briefly, chemotaxis medium (1% tryptone, 0.5% NaCl, 0.3% agar w/v) was prepared, autoclaved, and stored at 2x concentration; and chemotaxis plates were prepared 2-24 h prior to inoculation. 2x medium was melted, diluted to 1× with sterile water, and supplemented with 0.2% (w/v) arabinose. Deep-well plates (OmniTray w/Lid, Thermo Fisher) were poured at 40 ml/plate. Overnight, stationary phase cultures (16-24 h post inoculation) were diluted 10-fold with fresh LB, arrayed in a 96-well plate, then applied to the surface of a chemotaxis plate via pinning with a 96-pin, floating pin replicator (VP 408FH, V&P Scientific). Alternatively, 1 μl of diluted culture was applied to the surface of chemotaxis agar by pipetting. Chemotaxis plates were incubated at 30° C. for 16-24 h.
Chemotaxis was quantified by imaging plates at 16-24 h post inoculation and digitally measuring the area of motile bacteria using ImageJ (Schneider et al. (2012) Nat Methods 9:671-675). Chemotaxis area was normalized to MBP alone vector for each experiment for expression of “chemotaxis as a % of MBP”. Values were transformed into “chemotaxis repression” by calculating (chemotaxis as a % of MBP)-1, then normalizing this value to dncV. Chemotaxis repression was determined and used to simplify a direct relationship between cGAMP levels and plotted values.

[1] = system: 45 bp double-stranded interferon stimulatory DNA; experiment: In vitro cGAS 2′3′ cGAMP synthesis assay; type: biochemical; conditions: for 2′3′ cGAMP synthesis: 45 bp DNA
Experimental: […]. Briefly, 1 μM cGAS (or other concentration as indicated) was incubated with a 45 bp double-stranded interferon stimulatory DNA (sense: 5′-[…]-3′, SEQ ID NO: 6; antisense: 5′-[…]-3′, SEQ ID NO: 7) (Stetson and Medzhitov (2006) Immunity 24:93-103) in the 20 μl reaction buffer containing 50 mM Tris-HCl pH 7.5, 35 mM KCl, 5 mM Mg(OAc)2, 1 mM DTT, 25 μM ATP, 25 μM GTP, and [α-^32P] ATP (˜1 μCi) at 37° C. for 30 min. Reactions were terminated by heating at 95° C. for 3 min, and subsequently incubated with 4 U of alkaline phosphatase (New England Biolabs) at 37° C. for 30 min to hydrolyze unreacted NTPs. One microliter of each reaction was spotted on a PEI-Cellulose F thin-layer chromatography plate (EMD Biosciences) developed with 1.5 M KH2PO4 (pH 3.8) as a running buffer. Radiolabeled products were detected by Typhoon Trio Variable Mode Imager system (GE Healthcare) and quantified with ImageQuant 5.2. […]. Briefly, ATP/GTP titrations (0, 5, 10, 25, 50, 100, 200, 400, 800, and 1000 μM) were performed in the presence of fixed cGAS (1 μM) and 45 bp dsDNA concentration (1.5 μM) in 10 μl of reaction buffer containing 50 mM Tris-HCl pH 7.5, 35 mM KCl, 5 mM Mg(OAc)2, 1 mM DTT, and [α-^32P] ATP (˜1 μCi) at 37° C. for 5 min. Reactions were terminated and analyzed using thin layer chromatography as indicated above. The ATP-dependent cGAS enzyme kinetics were plotted and fitted according to Michaelis-Menten substrate inhibition analysis in GraphPad Prism (version 7.0c).

45 bp dsDNA = experiment: In vitro cGAS-DNA complex formation, electrophoretic mobility shift analysis; type: binding; conditions: 45 bp DNA, gradient dialysis
Experimental: cGAS-DNA complexes were stably assembled using a method adapted from a nucleosome assembly gradient dialysis protocol (Lee and Narlikar (2001) Current protocols in molecular biology Chapter 21, Unit 21.26), and complex formation was measured by electrophoretic mobility shift analysis. Briefly, a concentration gradient of recombinant protein (0.2, 0.4, 2, 10 μM) was incubated with 45 bp dsDNA (2 μM) in a high-salt buffer containing 20 mM HEPES-NaOH pH 7.8, […], 1 mM DTT at 4° C. for 20 min. The reconstitution mixture was then transferred into 8-10 kDa molecular weight cut-off dialysis tubing (Spectrum Labs), and placed into a beaker of the high-salt buffer. The KCl concentration was reduced gradually by slowly replacing high-salt buffer with low-salt buffer (20 mM HEPES-KOH pH 7.5, 50 mM KCl, 1 mM DTT) with a peristaltic pump (Bio-Rad) at a rate of […] for 48 hr at 4° C. After gradient dialysis, reactions were supplemented to 5% glycerol, and subsequently separated on a 2% agarose gel in 0.5×TBE buffer at 4° C. Agarose gels were stained in a solution containing 10 μg ml^−1 ethidium bromide and visualized with a ChemiDoc™ MP Imaging System (Bio-Rad). Alternatively, where indicated in FIGS. 8A and 8C, cGAS-DNA complexes were assembled by incubating directly in reaction buffer containing 20 mM HEPES-NaOH pH 7.8, […], 1 mM DTT at 4° C. for 20 min and analyzed by electrophoretic mobility shift analysis as indicated above.

17 bp DNA = experiment: In vitro cGAS 2′3′ cGAMP synthesis assay, DNA length specificity; type: biochemical
Experimental: […]. Briefly, 1 μM cGAS ([…], SEQ ID NO: 6; antisense: 5′-[…]-3′, SEQ ID NO: 7) (Stetson and Medzhitov (2006) Immunity 24:93-103) in the 20 μl reaction buffer containing 50 mM Tris-HCl pH 7.5, 35 mM KCl, 5 mM Mg(OAc)2, 1 mM DTT, 25 μM ATP, 25 μM GTP, and [α-^32P] ATP (˜1 μCi) at 37° C. for 30 min. Reactions were terminated by heating at 95° C. for 3 min, and subsequently incubated with 4 U of alkaline phosphatase (New England Biolabs) at 37° C. for 30 min to hydrolyze unreacted NTPs. One microliter of each reaction was spotted on a PEI-Cellulose F thin-layer chromatography plate (EMD Biosciences) developed with 1.5 M KH2PO4 (pH 3.8) as a running buffer. Radiolabeled products were detected by Typhoon Trio Variable Mode Imager system (GE Healthcare) and quantified with ImageQuant 5.2. […]. Briefly, ATP/GTP titrations (0, 5, 10, 25, 50, 100, 200, 400, 800, and 1000 μM) were performed in the presence of fixed cGAS (1 μM) and 45 bp dsDNA concentration (1.5 μM) in 10 μl of reaction buffer containing 50 mM Tris-HCl pH 7.5, 35 mM KCl, 5 mM Mg(OAc)2, 1 mM DTT, and [α-^32P] ATP (˜1 μCi) at 37° C. for 5 min. Reactions were terminated and analyzed using thin layer chromatography as indicated above. The ATP-dependent cGAS enzyme kinetics were plotted and fitted according to Michaelis-Menten substrate inhibition analysis in GraphPad Prism (version 7.0c).

V. cholerae genomic DNA = experiment: In vitro cGAS 2′3′ cGAMP synthesis assay with bacterial genomic DNA; type: biochemical, Vibrio cholerae; conditions: purified V. cholerae genomic DNA

Molecule | V. cholerae chemotaxis repression (V. cholerae) | higher-order cGAS-DNA complex formation (45 bp dsDNA) | 2′3′ cGAMP synthesis / enzyme activation in response to short DNA (17 bp DNA) | lower molecular weight minimal cGAS-DNA complex formation (45 bp dsDNA) | further results
dncV | inhibited chemotaxis |  |  |  | 
hcGAS | no loss of chemotaxis | preferentially formed higher-order oligomeric complexes | remained inactive |  | enhanced 2′3′ cGAMP synthesis versus wild type hcGAS [1]: > 15 fold; 2′3′ cGAMP synthesis ([1]; listed as hcGAS*): activity comparable to wildtype mcGAS; catalytic efficiency of 2′3′ cGAMP synthesis, fold less efficient than mcGAS ([1]; varying ATP concentration, Michaelis-Menten with substrate inhibition): ~20 fold
mcGAS | potently arrested chemotaxis |  | recognized both 45 bp and 17 bp DNA with near equal efficiency | formed two types of DNA complexes | 2′3′ cGAMP synthesis in response to bacterial genomic DNA (V. cholerae genomic DNA): produces more 2′3′ cGAMP than hcGAS
B1 | potently inhibited V. cholerae chemotaxis | unaffected | full enzyme activation | restored the ability of hcGAS to form a stable lower molecular weight protein-DNA complex | 2′3′ cGAMP synthesis [1]: elevated 2′3′ cGAMP synthesis; also recorded: dramatically enhanced 2′3′ cGAMP synthesis; enzyme kinetics of 2′3′ cGAMP synthesis ([1]; varying ATP concentration, compared to mcGAS): nearly equal to mcGAS
B2 | Neither K187N nor L195R alone was sufficient to enhance hcGAS activity |  |  |  | 
B3 | Neither K187N nor L195R alone was sufficient to enhance hcGAS activity |  |  |  | 
